Reference: doi:10.1101/2021.09.30.462664v1 (biorxiv, 2021)
Substitutions are numbered along the chain they refer to. pEC50: −log10 of the molar value.

How the values were obtained:
Test in all cases: whole-cell patch clamp, V0.[…] shift, Hill fit
Assay type in all cases: cell-based
[1] = target: KCNQ2/3 channel (KCNQ2/3 heteromers) (Homo sapiens, UniProt O43525+O43526)
[2] = target: T1, KCNQ3 (homomer; KCNQ3T = KCNQ3-A315T) (Homo sapiens, UniProt O43525, A315T/S209A)
T1 sequence (O43525 1-872 S209A/A315T): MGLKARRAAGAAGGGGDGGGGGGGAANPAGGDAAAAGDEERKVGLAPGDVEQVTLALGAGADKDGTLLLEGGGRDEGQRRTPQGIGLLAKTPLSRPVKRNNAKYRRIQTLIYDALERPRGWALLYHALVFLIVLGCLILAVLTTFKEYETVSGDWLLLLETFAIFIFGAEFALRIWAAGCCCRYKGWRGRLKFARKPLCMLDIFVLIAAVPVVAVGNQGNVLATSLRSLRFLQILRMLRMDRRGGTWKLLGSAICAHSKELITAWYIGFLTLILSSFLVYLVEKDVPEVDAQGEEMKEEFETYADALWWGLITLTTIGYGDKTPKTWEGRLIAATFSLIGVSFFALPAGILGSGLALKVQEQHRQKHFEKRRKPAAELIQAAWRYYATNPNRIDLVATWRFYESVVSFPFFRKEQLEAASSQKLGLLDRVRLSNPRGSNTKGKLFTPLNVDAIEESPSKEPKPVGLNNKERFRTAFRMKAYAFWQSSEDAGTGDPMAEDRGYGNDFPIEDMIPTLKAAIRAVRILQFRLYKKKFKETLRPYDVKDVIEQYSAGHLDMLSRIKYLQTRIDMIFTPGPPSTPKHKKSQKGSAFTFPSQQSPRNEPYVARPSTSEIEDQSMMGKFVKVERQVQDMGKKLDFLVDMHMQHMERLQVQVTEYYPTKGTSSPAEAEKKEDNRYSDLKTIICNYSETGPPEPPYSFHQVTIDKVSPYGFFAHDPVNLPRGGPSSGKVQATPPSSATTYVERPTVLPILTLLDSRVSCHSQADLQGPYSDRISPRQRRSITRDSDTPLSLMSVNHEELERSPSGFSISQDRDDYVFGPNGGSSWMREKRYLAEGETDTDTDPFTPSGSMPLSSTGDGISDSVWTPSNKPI

[3] = target: T2, KCNQ3 (homomer; KCNQ3T = KCNQ3-A315T) (Homo sapiens, UniProt O43525, A315T)
T2 sequence (O43525 1-872 A315T): T1 sequence (O43525 1-872 S209A/A315T) with A209S

[4] = target: T3, KCNQ3 (homomer; KCNQ3T = KCNQ3-A315T) (Homo sapiens, UniProt O43525, A315T/F167A)
T3 sequence (O43525 1-872 F167A/A315T): T1 sequence (O43525 1-872 S209A/A315T) with F167A, A209S

Chain of KCNQ2/3 channel (KCNQ2/3 heteromers) (O43525 whole entry): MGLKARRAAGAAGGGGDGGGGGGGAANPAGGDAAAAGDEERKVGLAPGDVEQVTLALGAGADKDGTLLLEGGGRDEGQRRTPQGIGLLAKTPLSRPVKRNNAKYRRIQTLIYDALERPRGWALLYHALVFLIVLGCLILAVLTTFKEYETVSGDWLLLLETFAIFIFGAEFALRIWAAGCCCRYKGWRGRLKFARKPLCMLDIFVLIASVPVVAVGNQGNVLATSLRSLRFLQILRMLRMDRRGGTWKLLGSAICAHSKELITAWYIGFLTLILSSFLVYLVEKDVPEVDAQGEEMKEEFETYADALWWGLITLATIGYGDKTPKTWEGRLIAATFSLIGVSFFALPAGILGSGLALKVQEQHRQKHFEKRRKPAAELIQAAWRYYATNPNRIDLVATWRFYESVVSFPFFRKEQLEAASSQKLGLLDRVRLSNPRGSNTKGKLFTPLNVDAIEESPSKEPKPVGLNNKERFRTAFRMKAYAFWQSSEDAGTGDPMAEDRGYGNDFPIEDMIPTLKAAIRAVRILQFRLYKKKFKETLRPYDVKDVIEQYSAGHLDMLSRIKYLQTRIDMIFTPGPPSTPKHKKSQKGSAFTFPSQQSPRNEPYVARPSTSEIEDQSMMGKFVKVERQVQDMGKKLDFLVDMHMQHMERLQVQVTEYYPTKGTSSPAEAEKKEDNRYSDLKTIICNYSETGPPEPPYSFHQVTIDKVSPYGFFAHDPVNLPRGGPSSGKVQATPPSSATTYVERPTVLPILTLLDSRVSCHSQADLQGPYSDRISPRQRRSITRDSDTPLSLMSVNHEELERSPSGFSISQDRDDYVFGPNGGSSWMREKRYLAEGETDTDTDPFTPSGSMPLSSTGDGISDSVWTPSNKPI
Chain of KCNQ2/3 channel (KCNQ2/3 heteromers) (O43526 whole entry): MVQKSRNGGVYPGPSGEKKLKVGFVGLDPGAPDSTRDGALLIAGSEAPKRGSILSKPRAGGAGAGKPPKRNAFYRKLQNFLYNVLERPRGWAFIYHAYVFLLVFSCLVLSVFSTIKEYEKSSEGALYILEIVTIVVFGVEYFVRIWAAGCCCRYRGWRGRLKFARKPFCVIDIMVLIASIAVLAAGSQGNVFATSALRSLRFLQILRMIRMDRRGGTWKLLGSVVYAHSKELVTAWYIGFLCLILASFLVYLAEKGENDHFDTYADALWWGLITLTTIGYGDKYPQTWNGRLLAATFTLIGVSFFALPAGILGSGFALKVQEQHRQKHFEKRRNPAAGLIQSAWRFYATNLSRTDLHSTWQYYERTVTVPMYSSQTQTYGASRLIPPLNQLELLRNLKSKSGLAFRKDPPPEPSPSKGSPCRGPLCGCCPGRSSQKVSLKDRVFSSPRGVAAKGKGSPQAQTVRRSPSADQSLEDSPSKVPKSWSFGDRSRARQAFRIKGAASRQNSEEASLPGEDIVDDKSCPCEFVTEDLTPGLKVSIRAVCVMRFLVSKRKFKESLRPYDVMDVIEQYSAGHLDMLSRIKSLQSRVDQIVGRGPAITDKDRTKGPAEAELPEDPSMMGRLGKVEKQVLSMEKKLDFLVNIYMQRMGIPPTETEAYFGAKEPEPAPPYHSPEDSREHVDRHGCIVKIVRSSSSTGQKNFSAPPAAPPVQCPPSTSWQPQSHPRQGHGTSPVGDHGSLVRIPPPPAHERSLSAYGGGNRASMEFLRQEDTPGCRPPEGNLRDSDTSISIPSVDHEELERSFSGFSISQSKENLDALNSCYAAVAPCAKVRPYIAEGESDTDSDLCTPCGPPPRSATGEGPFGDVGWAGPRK

Structure (SMILES) | pEC50 [1] | pEC50 [2] | pEC50 [3] | pEC50 [4]
CCOC(=O)Nc1ccc(NCc2ccc(F)cc2)cc1N [retigabine] | 5.44 | – | – | –
Oc1cc(Cl)ccc1Oc1ccc(Cl)cc1Cl [triclosan] | 4.49 | 4.34 | 4.42 | 4.38
